# Experimental data published in EP4578856A1, “HETEROCYCLIC COMPOUND” (Ubience Inc., priority 2022, dated 2024).
# Biological target: ROCK2 protein (Homo sapiens, UniProt O75116)
# Assay: Degradation inducing activity of ROCK2 protein in HUVEC cells, Western blotting (Simple Western JESS)
# Type: cell-based
# Set-up: endogenous in cells; host or cells: HUVEC (ATCC CRL-1730)
# Details: HUVEC, 24 h; for inhibition at 1 µM: degradation rate at 1 µM; for inhibition at 10 µM: degradation rate at 10 µM
# Method: In vitro degradation inducing activity of ROCK2 protein of compounds of Examples was evaluated by Western Blotting (WB).
# By a test compound, 10 mM DMSO solution was prepared, which was used as a 10 µM test compound solution. Further, the solution was diluted 10-fold with DMSO to prepare a 1 mM solution, which was used as a 1 µM test compound solution.
# HUVEC cells (ATCC: CRL-1730, Lot: 70041472) were cultured in F-12K medium supplemented with 10% FBS, 0.1 mg/mL heparin, […] Endothelial Cell Growth Supplement (ECGS, Corning), and 1% Penicillin/Streptomycin. The HUVEC cells seeded in a 24 well plate at 50,000 cells/well/1 mL were cultured for 24 hours, and then 1 µL of DMSO or a test compound solution was added thereto and treatment was performed for 24 hours. Cells were harvested and lysed for 20 minutes on ice using lysis buffer (Cell Signaling Technology, Cat#9803) supplemented with protease inhibitor cocktail (Sigma, Cat#P8340; Roche, Cat#P11873580001), and phosphatase inhibitor cocktail (Sigma, Cat#P5726, P0044). The lysate was sonicated (15 seconds, amplitude 30%, 1 cycle) and then centrifuged at 12500 rpm for 15 minutes at 4°C. The protein concentration was determined by BCA assay kit (Thermo Fisher Scientific, Cat#23225).
# The western blotting was performed using Simple Western JESS (protein simple). A cell lysis sample (protein amount; about 1.06 µg) was loaded on a plate of Simple Western JESS, and the expression level of ROCK2 protein was detected using a 12-230 kDa Wes Separation Module (Protein simple, Cat#SM-WO04), an Anti-Rabbit Detection Module for Wes (Protein simple, Cat#DM-001), and a Total Protein Detection Module for Wes (Protein simple, Cat#DM-TP01). As the primary antibody, a material obtained by diluting ROCK2 (D1B1) Rabbit mAb (Cell Signaling Technology, Cat#9029) at 1:10 was used, and as the secondary antibody, a material obtained by diluting HRP-labeled anti-rabbit IgG antibody (Cell Signaling Technology, Cat#7074S) at 1:100 was used. The expression level of the target protein was standardized using the total protein amount loaded as a reference. The standardized expression level data of the control (DMSO) was taken as 100%, and the degradation rate (%) was calculated from the average standardized expression level data of the test compound. All analysis steps, such as data detection and analysis, are fully automated.
# With respect to the ROCK2 protein degradation rate of the test compound, the protein degradation rates (%) at the evaluation concentrations were set to A ≥ 75%, 75% > B ≥ 50%, 50% > C ≥ 25%, and D < 25%, and are shown in Table 7.
# ROCK2 protein, sequence (O75116 whole entry): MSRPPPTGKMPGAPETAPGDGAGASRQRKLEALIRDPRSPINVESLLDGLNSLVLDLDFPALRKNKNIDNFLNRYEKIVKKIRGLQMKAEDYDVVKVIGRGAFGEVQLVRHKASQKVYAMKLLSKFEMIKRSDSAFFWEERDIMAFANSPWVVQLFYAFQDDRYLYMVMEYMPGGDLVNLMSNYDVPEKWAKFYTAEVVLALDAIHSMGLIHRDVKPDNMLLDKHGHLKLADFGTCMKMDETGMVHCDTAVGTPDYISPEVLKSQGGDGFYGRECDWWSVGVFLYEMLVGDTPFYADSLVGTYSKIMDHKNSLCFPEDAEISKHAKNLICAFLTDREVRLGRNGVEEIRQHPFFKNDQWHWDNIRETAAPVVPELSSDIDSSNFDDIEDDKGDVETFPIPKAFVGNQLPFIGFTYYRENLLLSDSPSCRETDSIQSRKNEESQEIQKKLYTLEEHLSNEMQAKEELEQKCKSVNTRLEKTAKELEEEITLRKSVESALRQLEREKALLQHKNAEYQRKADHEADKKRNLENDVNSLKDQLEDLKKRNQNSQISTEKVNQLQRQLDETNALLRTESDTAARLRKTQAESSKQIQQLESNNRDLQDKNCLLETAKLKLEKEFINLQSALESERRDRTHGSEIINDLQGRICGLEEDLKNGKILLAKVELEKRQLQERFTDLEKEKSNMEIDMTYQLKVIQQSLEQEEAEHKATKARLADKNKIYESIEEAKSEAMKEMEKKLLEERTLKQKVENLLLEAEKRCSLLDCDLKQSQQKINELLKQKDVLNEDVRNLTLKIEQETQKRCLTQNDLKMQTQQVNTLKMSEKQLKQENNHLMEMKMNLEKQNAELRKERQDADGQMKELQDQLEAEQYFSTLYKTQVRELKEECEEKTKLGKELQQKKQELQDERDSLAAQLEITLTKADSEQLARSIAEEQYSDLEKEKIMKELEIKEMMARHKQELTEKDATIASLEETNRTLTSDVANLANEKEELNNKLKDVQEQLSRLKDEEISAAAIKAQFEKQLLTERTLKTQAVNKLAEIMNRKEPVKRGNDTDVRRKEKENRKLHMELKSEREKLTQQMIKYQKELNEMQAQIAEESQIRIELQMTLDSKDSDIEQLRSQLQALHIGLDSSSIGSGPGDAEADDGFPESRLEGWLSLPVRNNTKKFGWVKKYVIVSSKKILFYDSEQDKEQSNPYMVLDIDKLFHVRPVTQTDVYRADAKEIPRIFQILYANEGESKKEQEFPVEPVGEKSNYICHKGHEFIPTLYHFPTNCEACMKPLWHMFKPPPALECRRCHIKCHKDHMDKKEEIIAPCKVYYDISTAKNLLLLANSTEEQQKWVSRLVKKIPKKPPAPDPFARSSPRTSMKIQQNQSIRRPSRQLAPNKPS
inhibition at 1 µM [%],inhibition at 10 µM [%],SMILES
< 25,≥ 75,"COC[C@H]1CN[C@H](C)CN1CC(=O)N1CC(C)(C)c2nc(CN(C)CCOCCOCCOCCNC[C@@H](C(=O)Nc3ccc4cnccc4c3)c3ccccc3)c(Cc3ccc(F)cc3)cc21 [Example 38, (S)-1-(6-(4-Fluorobenzyl)-1-(2-((2R,5R)-2-(methoxymethyl)-5-methylpiperazin-1-yl)acetyl)-3,3-dimethyl-2,3-dihydro-1H-pyrrolo[3,2-b]pyridin-5-yl)-N-(isoquinolin-6-yl)-2-methyl-16-phenyl-5,8,11-trioxa-2,14-diazaheptadecan-17-amide]"
< 25,< 25,"COC[C@H]1CN[C@H](C)CN1CC(=O)N1CC(C)(C)c2nc(CN(C)CCOCCOCCOCCOCCOCCOCCN[C@H](C)c3ccc(C(=O)Nc4ccncc4)cc3)c(Cc3ccc(F)cc3)cc21 [Example 27, 4-((R)-1-(6-(4-Fluorobenzyl)-1-(2-((2R,5R)-2-(methoxymethyl)-5-methylpiperazin-1-yl)acetyl)-3,3-dimethyl-2,3-dihydro-1H-pyrrolo[3,2-b]pyridin-5-yl)-2-methyl-5,8,11,14,17,20-hexaoxa-2,23-diazapentacosan-24-yl)-N-(pyridin-4-yl)benzamide]"
25 to 50,≥ 75,"COC[C@H]1CN[C@H](C)CN1CC(=O)N1CC(C)(C)c2ncc(Cc3cccc(OCCOCCOCCOCCOCCNC[C@@H](C(=O)Nc4ccc5cnccc5c4)c4ccccc4)c3)cc21 [Example 60, (S)-N-(Isoquinolin-6-yl)-1-(3-((1-(2-((2R,5R)-2-(methoxymethyl)-5-methylpiperazin-1-yl)acetyl)-3,3-dimethyl-2,3-dihydro-1H-pyrrolo[3,2-b]pyridin-6-yl)methyl)phenoxy)-17-phenyl-3,6,9,12-tetraoxa-15-azaoctadecan-18-amide]"
< 25,< 25,"C[C@@H]1CN(CC(=O)N2CC(C)(C)c3ncc(Cc4ccc(F)cc4)cc32)[C@@H](CN(C)CCOCCOCCOCCOCCOCCOCCN[C@H](Cc2cccc(F)c2)C(=O)Nc2ccc(-c3ccncc3)cc2)CN1 [Example 13, (R)-24-(3-Fluorobenzyl)-1-((2R,5R)-1-(2-(6-(4-fluorobenzyl)-3,3-dimethyl-2,3-dihydro-1H-pyrrolo[3,2-b]pyridin-1-yl)-2-oxoethyl)-5-methylpiperazin-2-yl)-2-methyl-N-(4-(pyridin-4-yl)phenyl)-5,8,11,14,17,20-hexaoxa-2,23-diazapentacosan-25-amide]"
25 to 50,50 to 75,"COC[C@H]1CN[C@H](C)CN1CC(=O)N1CC(C)(C)c2ncc(Cc3cccc(OCCOCCOCCOCCN[C@H](Cc4cccc(F)c4)C(=O)Nc4ccc(-c5ccncc5)cc4)c3)cc21 [Example 52, (R)-2-(3-Fluorobenzyl)-14-(3-((1-(2-((2R,5R)-2-(methoxymethyl)-5-methylpiperazin-1-yl)acetyl)-3,3-dimethyl-2,3-dihydro-1H-pyrrolo[3,2-b]pyridin-6-yl)methyl)phenoxy)-N-(4-(pyridin-4-yl)phenyl)-6,9,12-trioxa-3-azatetradecanamide]"
< 25,≥ 75,"COC[C@H]1CN[C@H](C)CN1CC(=O)N1CC(C)(C)c2nc(CN(C)CCOCCOCCOCCOCCOCCN[C@H](Cc3cccc(F)c3)C(=O)Nc3ccc(-c4ccncc4)cc3)c(Cc3ccc(F)cc3)cc21 [Example 33, (R)-21-(3-Fluorobenzyl)-1-(6-(4-fluorobenzyl)-1-(2-((2R,5R)-2-(methoxymethyl)-5-methylpiperazin-1-yl)acetyl)-3,3-dimethyl-2,3-dihydro-1H-pyrrolo[3,2-b]pyridin-5-yl)-2-methyl-N-(4-(pyridin-4-yl)phenyl)-5,8,11,14,17-pentaoxa-2,20-diazadocosan-22-amide]"
50 to 75,≥ 75,"COC[C@H]1CN[C@H](C)CN1CC(=O)N1CC(C)(C)c2nc(CN(C)CCOCCN[C@H](Cc3cccc(F)c3)C(=O)Nc3ccc(-c4ccncc4)cc3)c(Cc3ccc(F)cc3)cc21 [Example 29, (R)-2-((2-(2-(((6-(4-Fluorobenzyl)-1-(2-((2R,5R)-2-(methoxymethyl)-5-methylpiperazin-1-yl)acetyl)-3,3-dimethyl-2,3-dihydro-1H-pyrrolo[3,2-b]pyridin-5-yl)methyl)(methyl)amino)ethoxy)ethyl)amino)-3-(3-fluorophenyl)-N-(4-(pyridin-4-yl)phenyl)propanamide]"
25 to 50,≥ 75,"C[C@@H]1CN(CC(=O)N2CC(C)(C)c3ncc(Cc4ccc(F)cc4)cc32)[C@@H](CN(C)CCOCCN[C@H](Cc2cccc(F)c2)C(=O)Nc2ccc(-c3ccncc3)cc2)CN1 [Example 8, (R)-2-((2-(2-((((2R,5R)-1-(2-(6-(4-Fluorobenzyl)-3,3-dimethyl-2,3-dihydro-1H-pyrrolo[3,2-b]pyridin-1-yl)-2-oxoethyl)-5-methylpiperazin-2-yl)methyl) (methyl)amino)ethoxy)ethyl)amino)-3-(3-fluorophenyl)-N-(4-(pyridin-4-yl)phenyl)propanamide]"
25 to 50,≥ 75,"COC[C@H]1CN[C@H](C)CN1CC(=O)N1CC(C)(C)c2nc(CN(C)CCOCCOCCOCCOCCNC[C@@H](C(=O)Nc3ccc4cnccc4c3)c3ccccc3)c(Cc3ccc(F)cc3)cc21 [Example 39, (S)-1-(6-(4-Fluorobenzyl)-1-(2-((2R,5R)-2-(methoxymethyl)-5-methylpiperazin-1-yl)acetyl)-3,3-dimethyl-2,3-dihydro-1H-pyrrolo[3,2-b]pyridin-5-yl)-N-(isoquinolin-6-yl)-2-methyl-19-phenyl-5,8,11,14-tetraoxa-2,17-diazaicosan-20-amide]"
< 25,50 to 75,"COC[C@H]1CN[C@H](C)CN1CC(=O)N1CC(C)(C)c2ncc(Cc3cccc(OCCOCCOCCOCCN[C@H](C)c4ccc(C(=O)Nc5ccncc5)cc4)c3)cc21 [Example 45, 4-((R)-14-(3-((1-(2-((2R,5R)-2-(Methoxymethyl)-5-methylpiperazin-1-yl)acetyl)-3,3-dimethyl-2,3-dihydro-1H-pyrrolo[3,2-b]pyridin-6-yl)methyl)phenoxy)-6,9,12-trioxa-3-azatetradecan-2-yl)-N-(pyridin-4-yl)benzamide]"
25 to 50,50 to 75,"C[C@@H]1CN(CC(=O)N2CC(C)(C)c3ncc(Cc4ccc(F)cc4)cc32)[C@@H](CN(C)CCOCCOCCOCCOCCOCCOCCOCCNC[C@@H](C(=O)Nc2ccc3cnccc3c2)c2ccccc2)CN1 [Example 21, (S)-1-((2R,5R)-1-(2-(6-(4-Fluorobenzyl)-3,3-dimethyl-2,3-dihydro-1H-pyrrolo[3,2-b]pyridin-1-yl)-2-oxoethyl)-5-methylpiperazin-2-yl)-N-(isoquinolin-6-yl)-2-methyl-28-phenyl-5,8,11,14,17,20,23-heptaoxa-2,26-diazanonacosan-29-amide]"
< 25,≥ 75,"C[C@@H]1CN(CC(=O)N2CC(C)(C)c3ncc(Cc4ccc(F)cc4)cc32)[C@@H](CN(C)CCOCCNC[C@@H](C(=O)Nc2ccc3cnccc3c2)c2ccccc2)CN1 [Example 15, (S)-3-((2-(2-((((2R,5R)-1-(2-(6-(4-Fluorobenzyl)-3,3-dimethyl-2,3-dihydro-1H-pyrrolo[3,2-b]pyridin-1-yl)-2-oxoethyl)-5-methylpiperazin-2-yl)methyl)(methyl)amino)ethoxy)ethyl)amino)-N-(isoquinolin-6-yl)-2-phenylpropanamide]"
